In US11878965B2, “Inhibitors of peptidylarginine deiminases” (Gilead Sciences, Inc., priority 2020, dated 2024) one finds IC50 data, which are given here for 8 compounds.

As a reminder, the IC50 is the point on the concentration scale where inhibition reaches its midpoint.

Sequence of human PAD4 (Q9UM07 2-663): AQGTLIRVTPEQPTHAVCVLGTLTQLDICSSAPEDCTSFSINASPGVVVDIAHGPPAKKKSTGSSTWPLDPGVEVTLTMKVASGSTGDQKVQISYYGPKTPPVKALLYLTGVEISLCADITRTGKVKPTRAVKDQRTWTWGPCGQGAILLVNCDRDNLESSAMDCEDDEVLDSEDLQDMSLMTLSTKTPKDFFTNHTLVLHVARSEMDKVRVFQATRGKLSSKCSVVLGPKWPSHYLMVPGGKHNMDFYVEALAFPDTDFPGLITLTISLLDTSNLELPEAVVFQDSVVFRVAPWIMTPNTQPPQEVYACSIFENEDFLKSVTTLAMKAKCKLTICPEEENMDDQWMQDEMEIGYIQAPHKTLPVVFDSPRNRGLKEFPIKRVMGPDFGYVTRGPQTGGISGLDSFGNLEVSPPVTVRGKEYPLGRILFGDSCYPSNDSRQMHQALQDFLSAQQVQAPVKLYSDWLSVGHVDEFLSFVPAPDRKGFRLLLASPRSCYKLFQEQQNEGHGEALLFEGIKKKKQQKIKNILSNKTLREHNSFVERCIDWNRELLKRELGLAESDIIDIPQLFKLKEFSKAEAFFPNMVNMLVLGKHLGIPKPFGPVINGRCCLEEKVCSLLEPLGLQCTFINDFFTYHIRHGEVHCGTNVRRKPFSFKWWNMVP

For the experiment, the target named is human PAD4 (Homo sapiens (Human), UniProt Q9UM07). Kind of experiment: In Vitro PAD4 BAEE Biochemical Assay. The settings on record: human PAD4, BAEE substrate; 5 nM PAD4, 2 mM calcium chloride, 3 mM BAEE; geometric mean of multiple experiments. The procedure:
The PCR product was ligated into linearized pET-SUMO vector (Invitrogen, Carlsbad, CA), which is part of the Champion™ pET SUMO Protein Expression System. After sequence verification for the correct orientation, the pET-SUMO-hPAD4 expression plasmid was transformed into BL21(DE3) cells.
E. Coli BL21(DE3) cells were inoculated in LB medium with kanamycin at 37° C. until A600 nm reached about 0.5. Protein expression was induced by addition of 0.5 mM IPTG (final) and continued overnight at 16° C. at 220 rpm.
Cells were harvested by centrifugation at 5000 rpm for 10 minutes at 4° C. The pellet was resuspended in 300 ml lysis buffer (20 mM Tris-HCl, pH 8.0, 1 mM EDTA, 500 mM NaCl, 1 mM (tris(2-carboxyethyl)phosphine) (TCEP), 10% glycerol, and 1% Triton X100 and EDTA free protease inhibitor) and lysed by 3× passage through a microfluidizer (Microfluidics, Newton, MA) at 18,000 psi. The cell lysate was clarified by centrifugation at 30,000 rpm for 60 minutes at 4° C. The supernatant was applied to a 5 ml Ni-HP (GE HealthCare Cat #17524701) column preequilibrated in Ni-A buffer (20 mM Tris-HCl, pH 8.0, 20 mM Imidazole, 1 mM TCEP, 10% glycerol, and 400 mM NaCl). Bound protein was eluted with a 0-100% linear gradient of 100 mL Ni-B buffer (Ni A buffer+0.5 M Imidazole).
The His-Sumo tag was cleaved using sumo protease (Thermo Fisher Cat #: 12588018) while dialyzing in buffer (20 mM Tris-HCl, pH 8.0, 1 mM EDTA, 500 mM NaCl, 1 mM TCEP, 10% glycerol). The protein was then reloaded onto a Ni-HP column for a reverse purification step and recovered in flow through fraction. The protein with His-Sumo tag removed was then polished using a 16/60 Superdex-200 gel filtration column with gel filtration buffer (20 mM Tris pH 8.0, NaCl 400 mM and 1 mM TCEP). The fractions containing the protein were pulled and frozen at −80° C.
In Vitro PAD4 BAEE Biochemical Assay
The enzymatic activity of human PAD4 was monitored in a biochemical assay in the presence or absence of compounds using the small peptidyl arginine mimic BAEE (Nα-Benzoyl-L-arginine ethyl ester hydrochloride) as substrate. PAD4 activity led to deimination of BAEE and release of ammonia. Levels of ammonia were monitored by using an amine coupling reaction and were indicative of PAD4 enzymatic activity.
One hundred nanoliters of test compounds dissolved in DMSO at various concentrations were dispensed into a 384-well black OptiPlate using a Labcyte Echo instrument. Ten microliters of a solution of recombinant PAD4 and calcium chloride diluted in PAD4 assay buffer (50 mM MOPS [3-(N-morpholino) propanesulfonic acid], pH 7.6; 50 mM sodium chloride; 0.05% Tween-20; 2 mM dithiothreitol) was added to the compound-containing plate and was incubated for 30 minutes at 25° C. Ten microliters of a solution of BAEE (Sigma-Aldrich #B4500) diluted in PAD4 assay buffer was then added to start the reaction. Final concentrations were 5 nM PAD4, 2 mM calcium chloride, and 3 mM BAEE. The reaction mixture was incubated at 25° C. for 2 hours and was stopped with the addition of 10 microliters of a solution of 75 mM EDTA (Ethylenediaminetetraacetic acid) in PAD4 assay buffer. Thirty microliters of detection solution (5 mM o-phthalaldehyde, 50 mM MOPS [3-(N-morpholino) propanesulfonic acid], pH 7.6; 50 mM sodium chloride; 0.05% Tween-20; 5 mM dithiothreitol) was then added and the reaction was incubated for 1 hour at 25° C. The level of fluorescent thiol-substituted isoindole resulting from the reaction of ammonia, o-phthalaldehyde, and dithiothreitol was measured on an Envision plate reader (PerkinElmer) with 405 nm excitation and 535 nm emission.
For `COc1cc(C(=O)N2CCC[C@@H](N)C2)cc2nc(-c3cc4ccc(N(CC(F)(F)F)S(C)(=O)=O)nc4n3CC3CC3)n(C)c12` [Example 16, (R)-N-(2-(5-(3-aminopiperidine-1-carbonyl)-7-methoxy-1-methyl-1H-benzo[d]imidazol-2-yl)-1-(cyclopropylmethyl)-1H-pyrrolo [2,3-b]pyridin-6-yl)-N-(2,2,2-trifluoroethyl) methanesulfonamide], the IC50 came to 0.316 µM. For the compound `COc1cc(C(=O)N2CCC[C@@H](N)C2)cc2nc(-c3cc4ccc(N(C5CC5)S(C)(=O)=O)nc4n3CC3CC3)n(C)c12` [Example 17, (R)-N-(2-(5-(3-aminopiperidine-1-carbonyl)-7-methoxy-1-methyl-1H-benzo[d]imidazol-2-yl)-1-(cyclopropylmethyl)-1H-pyrrolo [2,3-b]pyridin-6-yl)-N-cyclopropylmethanesulfonamide], the IC50 was determined as 0.0885 µM. The same measure for `COc1cc(C(=O)N2CCC[C@@H](N)C2)cc2nc(-c3cc4ccc(N(C(F)F)S(C)(=O)=O)nc4n3CC3CC3)n(C)c12` [Example 18, (R)-N-(2-(5-(3-aminopiperidine-1-carbonyl)-7-methoxy-1-methyl-1H-benzo[d]imidazol-2-yl)-1-(cyclopropylmethyl)-1H-pyrrolo[2,3-b]pyridin-6-yl)-N-(difluoromethyl) methanesulfonamide]: 0.083 µM. The result for `COc1cc(C(=O)N2CCC[C@@H](N)C2)cc2nc(-c3cc4ccc(N(CC(F)F)S(C)(=O)=O)nc4n3CC3CC3)n(C)c12` [Example 19, (R)-N-(2-(5-(3-aminopiperidine-1-carbonyl)-7-methoxy-1-methyl-1H-benzo[d]imidazol-2-yl)-1-(cyclopropylmethyl)-1H-pyrrolo [2,3-b]pyridin-6-yl)-N-(2,2-difluoroethyl) methanesulfonamide] reads 0.181 µM; that for `COc1cc(C(=O)N2CCC[C@@H](N)C2)cc2nc(-c3cc4ccc(N(CC5CC5)S(C)(=O)=O)nc4n3CC3CC3)n(C)c12` [Example 20, (R)-N-(2-(5-(3-aminopiperidine-1-carbonyl)-7-methoxy-1-methyl-1H-benzo[d]imidazol-2-yl)-1-(cyclopropylmethyl)-1H-pyrrolo [2,3-b]pyridin-6-yl)-N-(cyclopropylmethyl) methanesulfonamide], 50 µM.

In the case of `COc1cc(C(=O)N2CCC[C@@H](N)C2)cc2nc(-c3cc4ccc(N(CC5CCC5)S(C)(=O)=O)nc4n3CC3CC3)n(C)c12` [Example 21, (R)-N-(2-(5-(3-aminopiperidine-1-carbonyl)-7-methoxy-1-methyl-1H-benzo[d]imidazol-2-yl)-1-(cyclopropylmethyl)-1H-pyrrolo[2,3-b]pyridin-6-yl)-N-(cyclobutylmethyl) methanesulfonamide], the IC50 amounted to 50 µM. The result for `COc1cc(C(=O)N2CCC[C@@H](N)C2)cc2nc(-c3cc4ccc(N(C)S(C)(=O)=O)nc4n3CC3CC3)n(CC3CC3)c12` [Example 23, (R)-N-(2-(5-(3-aminopiperidine-1-carbonyl)-1-(cyclopropylmethyl)-7-methoxy-1H-benzo[d]imidazol-2-yl)-1-(cyclopropylmethyl)-1H-pyrrolo[2,3-b]pyridin-6-yl)-N-methylmethanesulfonamide] reads 0.125 µM; that for `COc1cc(C(=O)N2CCC[C@@H](N)[C@H]2C)cc2nc(-c3cc4ccc(N(C)S(C)(=O)=O)nc4n3CC3CC3)n(CC3CC3)c12` [Example 24, N-(2-(5-((2R,3R)-3-amino-2-methylpiperidine-1-carbonyl)-1-(cyclopropylmethyl)-7-methoxy-1H-benzo[d]imidazol-2-yl)-1-(cyclopropylmethyl)-1H-pyrrolo [2,3-b]pyridin-6-yl)-N-methylmethanesulfonamide], 0.124 µM.
